# Experiment: Inhibition of calcium ionophore (A-23187)-stimulated LTB4 formation in human neutrophil assay
row,Compound,IC50
1,C/C(=N\OC(c1ccc(OCc2ccc3ccccc3n2)cc1Cl)C1CCCCC1)C(=O)O (stereo not drawn) [2-{[2-Chloro-4-(quinolin-2-ylmethoxy)-phenyl]-cyclohexyl-methoxyimino}-propionic acid],14 nM
2,O=C(O)c1ccc(/C=N/OC(c2ccc(OCc3ccc4ccccc4n3)cc2)C2CCCCC2)cc1 (stereo not drawn) [4-({Cyclohexyl-[4-(quinolin-2-ylmethoxy)-phenyl]-methoxyimino}-methyl)-benzoic acid],31 nM
3,C/C(=N\OC(c1ccc(OCc2cscn2)cc1)C1CCCCC1)C(=O)O (stereo not drawn) [2-{Cyclohexyl-[4-(thiazol-4-ylmethoxy)-phenyl]-methoxyimino}-propionic acid (0.25H2O)],360 nM
4,C/C(CCC(=O)O)=N\OC(c1ccc(OCc2ccc3ccccc3n2)cc1)C1CCCCC1 (stereo not drawn) [(Z)-4-{Cyclohexyl-[4-(quinolin-2-ylmethoxy)-phenyl]-methoxyimino}-pentanoic acid],17 nM
5,C/C(=N\OC(CCCc1ccc(F)cc1)c1ccc(OCc2ccc3ccccc3n2)cc1)C(=O)O (stereo not drawn) [2-{4-(4-Fluoro-phenyl)-1-[4-(quinolin-2-ylmethoxy)-phenyl]-butoxyimino}-propionic acid],9 nM
6,C/C(=N\O[C@H](c1ccc(OCc2ccc3ccccc3n2)cc1)C1CCCCC1)C(=O)O,34 nM
7,C/C(CCCCCC(=O)O)=N\OC(c1ccc(OCc2ccc3ccccc3n2)cc1)C1CCCCC1 (stereo not drawn) [7-{Cyclohexyl-[4-(quinolin-2-ylmethoxy)-phenyl]-methoxyimino}-octanoic acid (0.25H2O)],17 nM
8,O=C(O)/C=N/OC(c1ccc(OCc2cnc3ccccc3n2)cc1)C1CCCCC1 (stereo not drawn) [{Cyclohexyl-[4-(quinoxalin-2-ylmethoxy)-phenyl]-methoxyimino}-acetic acid],25 nM
9,Cc1nc(COc2ccc(C(O/N=C/C(=O)O)C3CCCCC3)cc2)cs1 (stereo not drawn) [{Cyclohexyl-[4-(2-methyl-thiazol-4-ylmethoxy)-phenyl]-methoxyimino}-acetic acid],380 nM
10,C/C(=N\OC(Cc1ccccc1)c1ccc(OCc2ccc3ccccc3n2)cc1)C(=O)O (stereo not drawn) [2-{2-Phenyl-1-[4-(quinolin-2-ylmethoxy)-phenyl]-ethoxyimino}-propionic acid (0.25H2O)],30 nM
11,O=C(O)/C(CCc1ccccc1)=N/OC(c1ccc(OCc2ccc3ccccc3n2)cc1)C1CCCCC1 (stereo not drawn) [2-{Cyclohexyl-[4-(quinolin-2-ylmethoxy)-phenyl]-methoxyimino}-4-phenyl-butyric acid (0.5H2O)],20 nM
12,O=C(O)/C=N/OC(c1ccc(OCc2ccc3ccccc3n2)cc1)C1C2CC3CC(C2)CC1C3 (stereo not drawn) [{Adamantan-2-yl-[4-(quinolin-2-ylmethoxy)-phenyl]-methoxyimino}-acetic acid],21 nM
13,C/C(=N\OC(c1ccc(OCc2nc3ccccc3s2)cc1)C1CCCCC1)C(=O)O (stereo not drawn) [2-{[4-(Benzothiazol-2-ylmethoxy)-phenyl]-cyclohexyl-methoxyimino}-propionic acid (0.5H2O)],60 nM
14,O=C(O)/C=N/OC(c1ccc(OCc2nc3ccccc3s2)cc1)C1CCCCC1 (stereo not drawn) [{[4-(Benzothiazol-2-ylmethoxy)-phenyl]-cyclohexyl-methoxyimino}-acetic acid],60 nM
15,C/C(=N\OC(c1ccc(OCc2ccc3ccccc3n2)c(C)c1)C1CCCCC1)C(=O)O (stereo not drawn) [2-{Cyclohexyl-[3-methyl-4-(quinolin-2-ylmethoxy)-phenyl]-methoxyimino}-propionic acid (0.1H2O)],20 nM
16,O=C(O)/C(CSCCO)=N/OC(c1ccc(OCc2ccc3ccccc3n2)cc1)C1CCCCC1 (stereo not drawn) [2-{Cyclohexyl-[4-(quinolin-2-ylmethoxy)-phenyl]-methoxyimino}-3-(2-hydroxy-ethylsulfanyl)-propionic acid],181 nM
17,C/C(=N\O[C@@H](c1ccc(OCc2ccc3ccccc3n2)cc1)C1CCCCC1)C(=O)O,70 nM

row,Compound,IC50
1,"O=C(O)/C=N/OC(c1ccc(OCc2nc3cccnc3s2)cc1)C1CCCCC1 (stereo not drawn) [{Cyclohexyl-[4-(thiazolo[5,4-b]pyridin-2-ylmethoxy)-phenyl]-methoxyimino}-acetic acid]",27 nM
2,O=C(O)/C(Cc1ccccc1)=N/OC(c1ccc(OCc2ccc3ccccc3n2)cc1)C1CCCCC1 (stereo not drawn) [2-{Cyclohexyl-[4-(quinolin-2-ylmethoxy)-phenyl]-methoxyimino}-3-phenyl-propionic acid (H2O)],35 nM
3,C/C(CCC(=O)O)=N/OC(c1ccc(OCc2ccc3ccccc3n2)cc1)C1CCCCC1 (stereo not drawn),20 nM
4,CCCCC(CCCC)C(O/N=C(\C)C(=O)O)c1ccc(OCc2ccc3ccccc3n2)cc1 (stereo not drawn) [2-{2-Butyl-1-[4-(quinolin-2-ylmethoxy)-phenyl]-hexyloxyimino}-propionic acid (2H2O)],14 nM
5,C/C(=N\OC(c1ccc(OCc2ccc3ccccc3n2)c(Cl)c1)C1CCCCC1)C(=O)O (stereo not drawn) [2-{[3-Chloro-4-(quinolin-2-ylmethoxy)-phenyl]-cyclohexyl-methoxyimino}-propionic acid],27 nM
6,Cc1cc(C(O/N=C/C(=O)O)C2CCCCC2)ccc1OCc1ccc2ccccc2n1 (stereo not drawn) [{Cyclohexyl-[3-methyl-4-(quinolin-2-ylmethoxy)-phenyl]-methoxyimino}-acetic acid (0.4H2O)],20 nM
7,C/C(=N\OC(c1ccc(OCc2ccc3ccccc3n2)cc1SC1CCCCC1)C1CCCCC1)C(=O)O (stereo not drawn) [2-{Cyclohexyl-[2-cyclohexylsulfanyl-4-(quinolin-2-ylmethoxy)-phenyl]-methoxyimino}-propionic acid],90 nM
8,O=C(O)/C=N/OC(c1ccc(OCc2nc3ccccc3o2)cc1)C1CCCCC1 (stereo not drawn) [{[4-(Benzooxazol-2-ylmethoxy)-phenyl]-cyclohexyl-methoxyimino}-acetic acid (0.5H2O)],143 nM
9,O=C(O)[C@@H](c1ccc(OCc2ccc3ccccc3n2)cc1)C1CCCC1 [(R)-Cyclopentyl-[4-(quinolin-2-ylmethoxy)-phenyl]-acetic acid],60 nM
10,C/C(=N\OC(CC1CCCCC1)c1ccc(OCc2ccc3ccccc3n2)cc1)C(=O)O (stereo not drawn) [2-{2-Cyclohexyl-1-[4-(quinolin-2-ylmethoxy)-phenyl]-ethoxyimino}-propionic acid],29 nM
11,C/C(=N\OC(CC(C)(C)c1ccccc1)c1ccc(OCc2ccc3ccccc3n2)cc1)C(=O)O (stereo not drawn) [2-{3-Methyl-3-phenyl-1-[4-(quinolin-2-ylmethoxy)-phenyl]-butoxyimino}-propionic acid (0.25H2O)],22 nM
12,C/C(=N\OC(c1ccc(OCc2ccc3ccccc3n2)cc1)C1CCCCCC1)C(=O)O (stereo not drawn) [2-{Cycloheptyl-[4-(quinolin-2-ylmethoxy)-phenyl]-methoxyimino}-propionic acid (0.5H2O)],13 nM
13,O=C(O)/C=N/OC(c1ccc(OCc2ccc3ccccc3n2)cc1)C1CCCC1 (stereo not drawn) [{Cyclopentyl-[4-(quinolin-2-ylmethoxy)-phenyl]-methoxyimino}-acetic acid],30 nM
14,C/C(CCCC(=O)O)=N\OC(c1ccc(OCc2ccc3ccccc3n2)cc1)C1CCCCC1 (stereo not drawn) [5-{Cyclohexyl-[4-(quinolin-2-ylmethoxy)-phenyl]-methoxyimino}-hexanoic acid],59 nM
15,O=C(O)/C(=N/OC(c1ccc(OCc2ccc3ccccc3n2)cc1)C1CCCCC1)c1ccccc1 (stereo not drawn) [{Cyclohexyl-[4-(quinolin-2-ylmethoxy)-phenyl]-methoxyimino}-phenyl-acetic acid (0.5H2O)],31 nM
16,O=C(O)/C=N/OC(c1ccc(-c2ccc3ccccc3n2)cc1)C1CCCCC1 (stereo not drawn) [[Cyclohexyl-(4-quinolin-2-yl-phenyl)-methoxyimino]-acetic acid(0.25H2O)],1200 nM
